Data published in patent US20240109865A1, “INDAZOLE COMPOUNDS AS KINASE INHIBITORS” (TYRA BIOSCIENCES, INC., priority 2020, published 2024).

Tests used:
[1] = target: FGFR3-BAIAP2L1 Ba/F3 cells (Homo sapiens, UniProt P22607); assay: Ba/F3 cell viability assay (CellTiter-Glo 2.0), FGFR3-BAIAP2L1 Ba/F3; assay type: cell-based; details: for Ba/F3 FGFR1/FGFR3 Selectivity: FGFR3 > FGFR1 selectivity ratio in Ba/F3 FGFR fusion cell based assays; for IC50: read-out: Ba/F3 Cells FGFR3 (IC50 nM), FGFR3-BAIAP2L1 Ba/F3 cells, 48 hours, Cell Titer Glo 2.0
Chain of FGFR3-BAIAP2L1 Ba/F3 cells (P22607 23-806 limits assumed, change not shown): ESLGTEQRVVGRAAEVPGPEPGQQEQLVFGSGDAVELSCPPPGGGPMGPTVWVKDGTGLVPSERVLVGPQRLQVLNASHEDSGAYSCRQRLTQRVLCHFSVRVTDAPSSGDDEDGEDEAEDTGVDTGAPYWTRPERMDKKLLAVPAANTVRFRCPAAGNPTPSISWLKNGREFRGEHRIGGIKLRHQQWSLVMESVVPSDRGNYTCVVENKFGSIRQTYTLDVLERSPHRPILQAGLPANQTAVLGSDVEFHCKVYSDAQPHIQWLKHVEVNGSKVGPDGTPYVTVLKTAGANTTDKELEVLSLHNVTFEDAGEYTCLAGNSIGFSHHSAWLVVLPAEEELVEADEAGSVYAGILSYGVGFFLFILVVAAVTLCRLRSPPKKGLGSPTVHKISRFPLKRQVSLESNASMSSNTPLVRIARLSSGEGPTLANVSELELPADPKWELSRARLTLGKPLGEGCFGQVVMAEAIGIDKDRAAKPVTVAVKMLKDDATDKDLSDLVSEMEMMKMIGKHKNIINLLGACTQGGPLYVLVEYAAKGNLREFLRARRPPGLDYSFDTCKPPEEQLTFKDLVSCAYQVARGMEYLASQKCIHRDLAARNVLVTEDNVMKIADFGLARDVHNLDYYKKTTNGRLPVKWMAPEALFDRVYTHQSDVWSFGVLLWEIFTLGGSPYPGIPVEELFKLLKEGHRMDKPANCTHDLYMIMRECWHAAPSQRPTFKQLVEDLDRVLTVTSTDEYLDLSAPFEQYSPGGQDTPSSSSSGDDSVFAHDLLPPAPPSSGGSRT
Summary of the method: (§1)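 IL3-independent Ba/F3 lines driven by FGFR1-BCR or FGFR3-BAIAP2L1 fusions, in RPMI1640/10% FBS. 9-dose 10-fold series from 30 μM, triplicate, 48 h at 37 °C; viability by CellTiter-Glo 2.0 ATP luminescence relative to DMSO control, IC50 from 4-parameter sigmoidal fit.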

FGFR1-BCR Ba/F3 cells = FGFR1-BCR Ba/F3 cells (Homo sapiens, UniProt P11362); assay: Ba/F3 cell viability assay (CellTiter-Glo 2.0), FGFR1-BCR Ba/F3; assay type: cell-based; details: read-out: Ba/F3 Cells FGFR1 (IC50 nM), 48 hours, Cell Titer Glo 2.0
Chain of FGFR1-BCR Ba/F3 cells (P11362 22-822 limits assumed, change not shown): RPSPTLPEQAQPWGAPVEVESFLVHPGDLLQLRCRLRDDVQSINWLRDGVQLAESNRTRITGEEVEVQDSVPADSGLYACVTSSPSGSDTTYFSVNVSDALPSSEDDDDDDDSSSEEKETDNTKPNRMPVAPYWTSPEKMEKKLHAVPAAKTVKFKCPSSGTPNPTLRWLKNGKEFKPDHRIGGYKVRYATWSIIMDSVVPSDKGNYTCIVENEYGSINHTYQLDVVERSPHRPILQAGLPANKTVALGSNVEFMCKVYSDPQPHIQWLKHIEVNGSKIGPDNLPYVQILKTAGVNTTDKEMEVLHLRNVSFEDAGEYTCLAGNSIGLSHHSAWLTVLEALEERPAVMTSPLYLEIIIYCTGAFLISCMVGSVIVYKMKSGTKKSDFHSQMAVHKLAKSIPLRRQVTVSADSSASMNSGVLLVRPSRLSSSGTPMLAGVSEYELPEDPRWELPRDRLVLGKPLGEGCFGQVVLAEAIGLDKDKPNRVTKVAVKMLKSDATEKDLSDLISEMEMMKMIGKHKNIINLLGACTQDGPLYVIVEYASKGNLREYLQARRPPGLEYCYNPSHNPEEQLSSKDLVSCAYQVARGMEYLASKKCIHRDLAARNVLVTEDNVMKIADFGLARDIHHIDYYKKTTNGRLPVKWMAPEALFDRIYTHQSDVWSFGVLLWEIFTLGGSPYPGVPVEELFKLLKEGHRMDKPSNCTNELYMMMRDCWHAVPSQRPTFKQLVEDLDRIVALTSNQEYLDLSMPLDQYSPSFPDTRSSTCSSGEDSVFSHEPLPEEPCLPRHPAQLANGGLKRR
Summary of the method: as §1

FGFR1 = FGFR1 (Homo sapiens (Human), UniProt P11362); assay: Kinase assay, binding constants (Kd), kinase-tagged T7 phage, qPCR
Chain of FGFR1 (P11362 22-822): as the sequence (P11362 22-822 limits assumed, change not shown) above
Summary of the method: (§2)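 Competition binding: T7 phage-tagged kinase + biotin-ligand beads + compound (11 pts, 3-fold, 0.9% DMSO). Elution 30 min RT with free ligand; qPCR quantitation. Kd via Hill fit, slope −1.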

FGFR2 = FGFR2 (Homo sapiens (Human), UniProt P21802); assay: as above
Chain of FGFR2 (P21802 22-821): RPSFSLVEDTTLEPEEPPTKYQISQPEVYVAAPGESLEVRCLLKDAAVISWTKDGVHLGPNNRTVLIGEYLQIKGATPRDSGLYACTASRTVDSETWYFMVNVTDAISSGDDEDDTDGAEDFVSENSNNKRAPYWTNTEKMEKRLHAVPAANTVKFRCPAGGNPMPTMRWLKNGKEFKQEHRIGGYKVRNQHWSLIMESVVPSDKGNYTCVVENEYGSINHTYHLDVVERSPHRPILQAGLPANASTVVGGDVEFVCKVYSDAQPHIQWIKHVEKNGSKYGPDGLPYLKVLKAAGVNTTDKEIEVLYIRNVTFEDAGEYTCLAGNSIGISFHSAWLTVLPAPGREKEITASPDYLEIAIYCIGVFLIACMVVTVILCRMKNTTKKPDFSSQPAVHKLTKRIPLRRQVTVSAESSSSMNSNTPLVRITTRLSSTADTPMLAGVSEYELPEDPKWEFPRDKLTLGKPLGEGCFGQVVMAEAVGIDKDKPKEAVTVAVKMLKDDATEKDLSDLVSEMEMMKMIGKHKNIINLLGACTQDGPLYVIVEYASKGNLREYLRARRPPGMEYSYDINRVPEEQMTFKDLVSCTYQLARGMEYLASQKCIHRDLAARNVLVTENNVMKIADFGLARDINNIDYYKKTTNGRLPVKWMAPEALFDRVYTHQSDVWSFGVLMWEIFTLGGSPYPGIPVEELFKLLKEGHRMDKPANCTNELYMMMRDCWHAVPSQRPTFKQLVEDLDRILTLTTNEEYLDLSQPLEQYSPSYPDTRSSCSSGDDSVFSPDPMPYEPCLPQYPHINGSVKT
Summary of the method: as §2

FGFR3 = FGFR3 (Homo sapiens (Human), UniProt P22607); assay: as above
Chain of FGFR3 (P22607 23-806): as the sequence (P22607 23-806 limits assumed, change not shown) above
Summary of the method: as §2

FGFR3 (V555M) = FGFR3 (V555M) (Homo sapiens (Human), UniProt P22607, V555M); assay: as above; details: V555M mutant
Chain of FGFR3 (V555M) (P22607 23-806 V555M): as the sequence (P22607 23-806 limits assumed, change not shown) above, with V533M counted along it
Summary of the method: as §2

FGFR4 = FGFR4 (Homo sapiens (Human), UniProt P22455); assay: as above
Chain of FGFR4 (P22455 22-802): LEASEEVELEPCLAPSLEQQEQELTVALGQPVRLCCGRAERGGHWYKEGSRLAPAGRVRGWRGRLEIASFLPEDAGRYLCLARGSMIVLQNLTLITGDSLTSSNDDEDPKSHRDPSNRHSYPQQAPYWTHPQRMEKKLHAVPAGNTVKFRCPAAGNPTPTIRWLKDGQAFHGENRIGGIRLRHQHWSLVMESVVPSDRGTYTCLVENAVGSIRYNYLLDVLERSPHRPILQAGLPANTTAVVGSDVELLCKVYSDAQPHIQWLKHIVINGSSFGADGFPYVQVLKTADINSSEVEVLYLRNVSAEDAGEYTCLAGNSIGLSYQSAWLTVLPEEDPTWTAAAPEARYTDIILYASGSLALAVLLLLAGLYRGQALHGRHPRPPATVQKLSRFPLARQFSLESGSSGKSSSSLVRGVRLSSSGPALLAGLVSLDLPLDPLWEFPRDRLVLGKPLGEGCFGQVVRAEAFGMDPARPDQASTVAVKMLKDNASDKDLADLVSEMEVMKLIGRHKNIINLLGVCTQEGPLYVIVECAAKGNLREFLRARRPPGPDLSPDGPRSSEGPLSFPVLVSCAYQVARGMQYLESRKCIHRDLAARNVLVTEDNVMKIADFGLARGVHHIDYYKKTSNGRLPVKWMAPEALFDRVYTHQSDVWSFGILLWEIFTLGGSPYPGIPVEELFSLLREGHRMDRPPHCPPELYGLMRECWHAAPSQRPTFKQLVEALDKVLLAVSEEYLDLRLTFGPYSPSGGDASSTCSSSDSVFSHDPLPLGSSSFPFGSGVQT
Summary of the method: as §2

Structure (SMILES) | Ba/F3 FGFR1/FGFR3 Selectivity [1] | IC50 [1] [nM] | IC50 (FGFR1-BCR Ba/F3 cells) [nM] | Kd (FGFR1) [nM] | Kd (FGFR2) [nM] | Kd (FGFR3) [nM] | Kd (FGFR3 (V555M)) [nM] | Kd (FGFR4) [nM]
C[C@@H](Oc1ccc2[nH]nc(-c3cnc(N4CC5(CCCS(=O)(=O)C5)C4)nc3)c2c1)c1c(Cl)cncc1Cl [Example 129, 2-[5-[5-[(1R)-1-(3,5-dichloro-4-pyridyl)ethoxy]-1H-indazol-3-yl]pyrimidin-2-yl]-6λ^6-thia-2-azaspiro[3.5]nonane 6,6-dioxide] | 6 | 20 to 100 | 100 to 300 | 20 to 100 | 20 to 100 | 1 to 20 | 1 to 20 | 1 to 20
CCOC(=O)N1CCC2(CC1)CN(c1ccc(-c3n[nH]c4ccc(O[C@H](C)c5c(Cl)cncc5Cl)cc34)cn1)C2 [Example 130, ethyl 2-[5-[5-[(1R)-1-(3,5-dichloro-4-pyridyl)ethoxy]-1H-indazol-3-yl]-2-pyridyl]-2,7-diazaspiro[3.5]nonane-7-carboxylate] | 12 | 20 to 100 | > 300 | 20 to 100 | 20 to 100 | 1 to 20 | 1 to 20 | 1 to 20
CCOC(=O)N1CCCC2(C1)CN(c1ncc(-c3n[nH]c4ccc(O[C@H](C)c5c(Cl)cncc5Cl)cc34)cn1)C2 [Example 131, ethyl 2-[5-[5-[(1R)-1-(3,5-dichloro-4-pyridyl)ethoxy]-1H-indazol-3-yl]pyrimidin-2-yl]-2,8-diazaspiro[3.5]nonane-8-carboxylate] | 5 | 100 to 300 | > 300 | 100 to 300 | 100 to 300 | 1 to 20 | 1 to 20 | 1 to 20
CC(C)OC(=O)N1CCCC2(C1)CN(c1ncc(-c3n[nH]c4ccc(O[C@H](C)c5c(Cl)cncc5Cl)cc34)cn1)C2 [Example 135, isopropyl 2-[5-[5-[(1R)-1-(3,5-dichloro-4-pyridyl)ethoxy]-1H-indazol-3-yl]pyrimidin-2-yl]-2,8-diazaspiro[3.5]nonane-8-carboxylate] | 9 | 100 to 300 | > 300 | > 300 | > 300 | 20 to 100 | 1 to 20 | 1 to 20
COC(=O)N1CCC2(CC1)CN(c1ncc(-c3n[nH]c4ccc(O[C@H](C)c5c(Cl)cncc5Cl)cc34)cn1)C2 [Example 136, methyl 2-[5-[5-[(1R)-1-(3,5-dichloro-4-pyridyl)ethoxy]-1H-indazol-3-yl]pyrimidin-2-yl]-2,7-diazaspiro[3.5]nonane-7-carboxylate] | 6 | 20 to 100 | > 300 | 20 to 100 | 1 to 20 | 1 to 20 | 1 to 20 | 1 to 20
C[C@@H](Oc1ccc2[nH]nc(-c3cnc(N4CC5(CCN(S(C)(=O)=O)CC5)C4)nc3)c2c1)c1c(Cl)cncc1Cl [Example 137, 5-[(1R)-1-(3,5-dichloro-4-pyridyl)ethoxy]-3-[2-(7-methylsulfonyl-2,7-diazaspiro[3.5]nonan-2-yl)pyrimidin-5-yl]-1H-indazole] | 11 | 1 to 20 | 100 to 300 | 20 to 100 | 20 to 100 | 1 to 20 | 1 to 20 | 1 to 20
COC(=O)N1CCCC2(C1)CN(c1ncc(-c3n[nH]c4ccc(O[C@H](C)c5c(Cl)cncc5Cl)cc34)cn1)C2 [Example 138, methyl 2-[5-[5-[(1R)-1-(3,5-dichloro-4-pyridyl)ethoxy]-1H-indazol-3-yl]pyrimidin-2-yl]-2,8-diazaspiro[3.5]nonane-8-carboxylate] | 8 | 20 to 100 | > 300 | 20 to 100 | 20 to 100 | 1 to 20 | 1 to 20 | 1 to 20
Cc1cncc(C)c1[C@H](C)Oc1ccc2[nH]nc(-c3ccc(N4CC5(C4)CN(S(C)(=O)=O)C5)nc3)c2c1 [Example 140, 5-[(1S)-1-(3,5-dimethyl-4-pyridyl)ethoxy]-3-[6-(2-methylsulfonyl-2,6-diazaspiro[3.3]heptan-6-yl)-3-pyridyl]-1H-indazole] | 19 | 100 to 300 | > 300 | > 300 | > 300 | 20 to 100 | 1 to 20 | > 300
Cc1cnnc(C)c1[C@@H](C)Oc1ccc2[nH]nc(-c3cnc(N4CC5(CCS(=O)(=O)C5)C4)nc3)c2c1 [Example 141, 2-[5-[5-[(1R)-1-(3,5-dimethylpyridazin-4-yl)ethoxy]-1H-indazol-3-yl]pyrimidin-2-yl]-6λ^6-thia-2-azaspiro[3.4]octane 6,6-dioxide] | 3 | > 300 | > 300 | 20 to 100 | 20 to 100 | 1 to 20 | 1 to 20 | 1 to 20
COC(=O)N1CC2(C1)CN(c1ncc(-c3n[nH]c4ccc(O[C@H](C)c5c(C)cnnc5C)cc34)cn1)C2 [Example 143, methyl 6-[5-[5-[(1R)-1-(3,5-dimethylpyridazin-4-yl)ethoxy]-1H-indazol-3-yl]pyrimidin-2-yl]-2,6-diazaspiro[3.3]heptane-2-carboxylate] | 14 | 100 to 300 | > 300 | 100 to 300 | 20 to 100 | 1 to 20 | 1 to 20 | 1 to 20
Cc1cnnc(C)c1[C@@H](C)Oc1ccc2[nH]nc(-c3ccc(N4CC5(CCS(=O)(=O)C5)C4)nc3)c2c1 [Example 144, 2-[5-[5-[(1R)-1-(3,5-dimethylpyridazin-4-yl)ethoxy]-1H-indazol-3-yl]-2-pyridyl]-6λ^6-thia-2-azaspiro[3.4]octane 6,6-dioxide] | 33 | 20 to 100 | > 300 | 1 to 20 | 1 to 20 | 1 to 20 | 1 to 20 | 1 to 20
Cc1cnnc(C)c1[C@H](C)Oc1ccc2[nH]nc(-c3ccc(N4CC5(CCS(=O)(=O)C5)C4)nc3)c2c1 [Example 145, 2-[5-[5-[(1S)-1-(3,5-dimethylpyridazin-4-yl)ethoxy]-1H-indazol-3-yl]-2-pyridyl]-6λ^6-thia-2-azaspiro[3.4]octane 6,6-dioxide] | 2 | > 300 | > 300 | > 300 | 20 to 100 | 20 to 100 | 1 to 20 | 100 to 300
CCOC(=O)N1CC2(C1)CN(c1ncc(-c3n[nH]c4ccc(O[C@H](C)c5c(C)cnnc5C)cc34)cn1)C2 [Example 146, ethyl 6-[5-[5-[(1R)-1-(3,5-dimethylpyridazin-4-yl)ethoxy]-1H-indazol-3-yl]pyrimidin-2-yl]-2,6-diazaspiro[3.3]heptane-2-carboxylate] | 15 | 100 to 300 | > 300 | 100 to 300 | 20 to 100 | 1 to 20 | 1 to 20 | 1 to 20
Cc1cnnc(C)c1[C@@H](C)Oc1ccc2[nH]nc(-c3ccc(N4CC5(C4)CN(S(C)(=O)=O)C5)nc3)c2c1 [Example 148, 5-[(1R)-1-(3,5-dimethylpyridazin-4-yl)ethoxy]-3-[6-(2-methylsulfonyl-2,6-diazaspiro[3.3]heptan-6-yl)-3-pyridyl]-1H-indazole] | 16 | 20 to 100 | > 300 | 1 to 20 | 1 to 20 | 1 to 20 | 1 to 20 | 1 to 20
C[C@H](Oc1ccc2[nH]nc(-c3ccc(N4CC5(C4)CN(S(C)(=O)=O)C5)nc3)c2c1)c1c(Cl)cncc1Cl [Example 160, 5-[(1S)-1-(3,5-dichloro-4-pyridyl)ethoxy]-3-[6-(2-methylsulfonyl-2,6-diazaspiro[3.3]heptan-6-yl)-3-pyridyl]-1H-indazole] | 17 | 100 to 300 | > 300 | > 300 | 100 to 300 | 20 to 100 | 1 to 20 | 100 to 300
C[C@@H](Oc1ccc2[nH]nc(-c3ccc(N4CC5(CCCN(S(C)(=O)=O)C5)C4)nc3)c2c1)c1c(Cl)cncc1Cl [Example 162, 5-[(1R)-1-(3,5-dichloro-4-pyridyl)ethoxy]-3-[6-(8-methylsulfonyl-2,8-diazaspiro[3.5]nonan-2-yl)-3-pyridyl]-1H-indazole] | 12 | 1 to 20 | 100 to 300 | 20 to 100 | 1 to 20 | 1 to 20 | 1 to 20 | 1 to 20
C[C@@H](Oc1ccc2[nH]nc(-c3ccc(N4CC5(CCN(S(C)(=O)=O)C5)C4)nc3)c2c1)c1c(Cl)cncc1Cl [Example 163, 5-[(1R)-1-(3,5-dichloro-4-pyridyl)ethoxy]-3-[6-(7-methylsulfonyl-2,7-diazaspiro[3.4]octan-2-yl)-3-pyridyl]-1H-indazole] | 17 | 1 to 20 | 20 to 100 | 1 to 20 | 1 to 20 | 1 to 20 | 1 to 20 | 1 to 20
